Assay results from patent US11214594B2, “Antimicrobial peptide having synergistic antibacterial effect with antibiotics on multidrug resistant bacteria, and use thereof” (priority 2016, dated 2022).
Values after ≈ are worked out from the molar mass of the structure shown. Values joined by “and” are separate entries in the source; they are usually repeats but may differ in a detail not shown here. Equal values may be shown once. Read-outs that look alike come from different tables or passages of the source. Where a SMILES comes first, the peptide text is derived from it.

Tests used:
A. baumannii [1] = experiment: microbe, parasite or virus in culture; type: cell-based, Acinetobacter baumannii
Procedure: (§1) For the antibacterial activity, a minimal inhibitory concentration (MIC) of a peptide in which fungus bodies were not split in an MH medium with sufficient nutrients was measured.
(§2) Specifically, the strains described in the following [Table 2] were purchased and diluted with an MH medium such that the number of bacteria was 2×10^6 colony-forming units (CFUs), 100 μl of each of the diluted strains was aliquoted into a 96-well microtiter plate, and then 100 μl of a peptide solution diluted with the MH medium (solution diluted stepwise at 2: 1) was added to each well.

MDRAB 12035 [2] = experiment: microbe, parasite or virus in culture; type: cell-based, Acinetobacter baumannii
Procedure: as §1, §2

MDRST 8009 = type: cell-based, Salmonella typhimurium; details: agent alone
Procedure: as §1, §2

S. typhimurium = experiment: microbe, parasite or virus in culture; type: cell-based, Salmonella typhimurium
Procedure: as §1, §2

A. baumannii [3] = experiment: MIC of antimicrobial peptide during combined treatment with antibiotic; type: cell-based, Acinetobacter baumannii
Procedure: (§3) Specifically, the strains described in [Table 2] were prepared and diluted with an MH medium such that the number of bacteria was 2×10^6 colony-forming units (CFUs) per 1 ml, 100 μl of the diluted strains was each aliquoted into a 96-well microtiter plate, and then 50 μl of a peptide solution diluted with the MH medium from the MIC value (solution diluted stepwise at 2: 1) was added to each well. Thereafter, the MIC value of each mixed solution was determined by diluting the antibiotic solution with the MH medium, adding 50 μl of the diluted solution to each well, and performing an experiment even under a reversed condition.

MDRAB 12035 [4] = experiment: as above; type: cell-based, Acinetobacter baumannii
Procedure: as §3

MDREC 1229 = type: cell-based, Escherichia coli
Procedure: as §3

E. coli = type: cell-based, Escherichia coli; details: E. coli
Procedure: as §3

MDRAB 12036 = type: cell-based, Acinetobacter baumannii
Procedure: as §1, §2

[5] = erythromycin 4 μg/ml (Conc./MIC 1/8)
[6] = erythromycin 8 μg/ml (Conc./MIC 1/4)
[7] = erythromycin 16 μg/ml (Conc./MIC 1/2)
[8] = erythromycin 32 μg/ml (Conc./MIC 1)
[9] = linezolid 32 μg/ml (Conc./MIC 1/8)
[10] = linezolid 64 μg/ml (Conc./MIC 1/4)
[11] = vancomycin 512 μg/ml (Conc./MIC 1/2)
[12] = vancomycin 1024 μg/ml (Conc./MIC 1)
[13] = linezolid 64 μg/ml (Conc./MIC 1/8)
[14] = linezolid 512 μg/ml (Conc./MIC 1)
[15] = with Erythromycin […] (Conc./MIC 1)

`CC[C@H](C)[C@H](NC(=O)[C@H](CCCCN)NC(=O)[C@H](Cc1c[nH]c2ccccc12)NC(=O)[C@@H](N)CCCNC(=N)N)C(=O)N[C@@H](Cc1ccccc1)C(=O)N[C@@H](CCCCN)C(=O)N[C@@H](CCCCN)C(=O)N[C@H](C(=O)N1CCC[C@H]1C(=O)N[C@@H](CCCCN)C(=O)N[C@@H](Cc1ccccc1)C(=O)N[C@@H](CC(C)C)C(=O)N[C@@H](Cc1c[nH]cn1)C(=O)N[C@@H](CO)C(=O)N[C@@H](C)C(=O)N[C@@H](CCCCN)C(=O)N[C@@H](CCCCN)C(=O)N[C@@H](Cc1ccccc1)C(N)=O)[C@@H](C)CC` [PapMA-1, RWK IFK KIP KFL HSA KKF-NH2] (H-RWKIFKKIPKFLHSAKKF-NH2; N-terminus assumed) was tested, and the “Minimal inhibitory concentration MIC” value (A. baumannii [1]) was 64 µg/mL (≈ 27.8 µM), the “Peptide MIC, peptide alone” value (A. baumannii [1]) was 64 µg/mL and the “Minimal inhibitory concentration MIC” value (MDRAB 12035 [2]) was 64 µg/mL (≈ 27.8 µM). The “Peptide MIC, peptide alone” value (MDRAB 12035 [2]) was 64 µg/mL, the “Minimal inhibitory concentration MIC” value (MDRST 8009) was 64 µg/mL (≈ 27.8 µM) and the “Minimal inhibitory concentration MIC” value (S. typhimurium) was 64 µg/mL (≈ 27.8 µM). The “Peptide MIC during treatment with antibiotic” value (A. baumannii [3]; [5]) was 4 µg/mL, the “Peptide MIC during treatment with erythromycin” value (A. baumannii [3]; [5]) was 4 µg/mL and the “Peptide MIC during treatment with antibiotic” value (A. baumannii [3]; [6]) was 4 µg/mL. The “Peptide MIC during treatment with erythromycin” value (A. baumannii [3]; [6]) was 4 µg/mL, the “Peptide MIC during treatment with antibiotic” value (A. baumannii [3]; [7]) was 2 µg/mL and the “Peptide MIC during treatment with erythromycin” value (A. baumannii [3]; [7]) was 2 µg/mL. For the same compound, the “Peptide MIC during treatment with antibiotic” value (A. baumannii [3]; [8]) was 0 µg/mL, the “Peptide MIC during treatment with erythromycin” value (A. baumannii [3]; [8]) was 0 µg/mL and the “Peptide MIC during treatment with antibiotic” value (A. baumannii [3]; [9]) was 4 µg/mL. The “Peptide MIC during treatment with linezolid” value (A. baumannii [3]; [9]) was 4 µg/mL, the “Peptide MIC during treatment with antibiotic” value (A. baumannii [3]; [10]) was 4 µg/mL and the “Peptide MIC during treatment with linezolid” value (A. baumannii [3]; [10]) was 4 µg/mL. The “Peptide MIC during treatment with antibiotic” value (A. baumannii [3]; linezolid […] (Conc./MIC 1)) was 0 µg/mL, the “Peptide MIC during treatment with linezolid” value (A. baumannii [3]; linezolid […] (Conc./MIC 1)) was 0 µg/mL and the “Peptide MIC during treatment with antibiotic” value (A. baumannii [3]; linezolid […] (Conc./MIC 1/2)) was 0.5 µg/mL. The “Peptide MIC during treatment with linezolid” value (A. baumannii [3]; linezolid […] (Conc./MIC 1/2)) was 0.5 µg/mL, the “Peptide MIC during treatment with antibiotic” value (A. baumannii [3]; [11]) was 0.25 µg/mL and the “Peptide MIC during treatment with vancomycin” value (A. baumannii [3]; [11]) was 0.25 µg/mL. For the same compound, the “Peptide MIC during treatment with antibiotic” value (A. baumannii [3]; [12]) was 0 µg/mL, the “Peptide MIC during treatment with vancomycin” value (A. baumannii [3]; [12]) was 0 µg/mL and the “Peptide MIC during treatment with antibiotic” value (A. baumannii [3]; vancomycin […] (Conc./MIC 1/4)) was 0.5 µg/mL. The “Peptide MIC during treatment with vancomycin” value (A. baumannii [3]; vancomycin […] (Conc./MIC 1/4)) was 0.5 µg/mL, the “Peptide MIC during treatment with antibiotic” value (A. baumannii [3]; vancomycin […] (Conc./MIC 1/8)) was 4 µg/mL and the “Peptide MIC during treatment with vancomycin” value (A. baumannii [3]; vancomycin […] (Conc./MIC 1/8)) was 4 µg/mL. The “Peptide MIC during treatment with erythromycin” value (MDRAB 12035 [4]; [5]) was 4 µg/mL, the “MIC of peptide in combination as fraction of the MIC of the peptide alone” value (MDRAB 12035 [4]; erythromycin 8 μg/ml) was 1/16 and the “MIC value of peptide during combined treatment with erythromycin” value (MDRAB 12035 [4]; erythromycin 8 μg/ml (1/4 of its MIC)) was 4 µg/mL. The “Peptide MIC during treatment with erythromycin” value (MDRAB 12035 [4]; [6]) was 4 µg/mL, the “Peptide MIC during treatment with erythromycin” value (MDRAB 12035 [4]; [7]) was 4 µg/mL and the “Peptide MIC during treatment with erythromycin” value (MDRAB 12035 [4]; [8]) was 0 µg/mL. For the same compound, the “Peptide MIC during treatment with linezolid” value (MDRAB 12035 [4]; [13]) was 4 µg/mL, the “Peptide MIC during treatment with linezolid” value (MDRAB 12035 [4]; [14]) was 0 µg/mL and the “Peptide MIC during treatment with linezolid” value (MDRAB 12035 [4]; linezolid […] (Conc./MIC 1/2)) was 1 µg/mL. For the same compound, the “Peptide MIC during treatment with linezolid” value (MDRAB 12035 [4]; linezolid […] (Conc./MIC 1/4)) was 4 µg/mL, the “Peptide MIC during treatment with vancomycin” value (MDRAB 12035 [4]; [11]) was 2 µg/mL and the “Peptide MIC during treatment with vancomycin” value (MDRAB 12035 [4]; [12]) was 1 µg/mL. The “Peptide MIC during treatment with vancomycin” value (MDRAB 12035 [4]; vancomycin […] (Conc./MIC 1/4)) was 4 µg/mL, the “Peptide MIC during treatment with vancomycin” value (MDRAB 12035 [4]; vancomycin […] (Conc./MIC 1/8)) was 4 µg/mL and the “Peptide MIC during treatment with antibiotic” value (MDREC 1229; erythromycin 32 μg/ml (Conc./MIC 1/8)) was 2 µg/mL. For the same compound, the “Peptide MIC during treatment with antibiotic” value (MDREC 1229; erythromycin 64 μg/ml (Conc./MIC 1/4)) was 1 µg/mL and 2 µg/mL, the “Peptide MIC during treatment with antibiotic” value (MDREC 1229; erythromycin […] (Conc./MIC 1)) was 0 µg/mL and the “Peptide MIC during treatment with antibiotic” value (MDREC 1229; erythromycin […] (Conc./MIC 1/2)) was 1 µg/mL. For the same compound, the “Peptide MIC during treatment with antibiotic” value (MDREC 1229; [13]) was 2 µg/mL and 4 µg/mL, the “Peptide MIC during treatment with antibiotic” value (MDREC 1229; [14]) was 0 µg/mL and the “Peptide MIC during treatment with antibiotic” value (MDREC 1229; linezolid […] (Conc./MIC 1/2)) was 1 µg/mL. For the same compound, the “Peptide MIC during treatment with antibiotic” value (MDREC 1229; linezolid […] (Conc./MIC 1/4)) was 2 µg/mL, the “Peptide MIC during treatment with antibiotic” value (MDREC 1229; [11]) was 2 µg/mL and the “Peptide MIC during treatment with antibiotic” value (MDREC 1229; [12]) was 1 µg/mL. For the same compound, the “Peptide MIC during treatment with antibiotic” value (MDREC 1229; vancomycin […] (Conc./MIC 1/4)) was 4 µg/mL, the “Peptide MIC during treatment with antibiotic” value (MDREC 1229; vancomycin […] (Conc./MIC 1/8)) was 8 µg/mL and the “Peptide MIC” value (MDREC 1229; [15]) was 0 µg/mL. The “Peptide MIC” value (MDREC 1229; with Linezolid 512 μg/ml (Conc./MIC 1)) was 0 µg/mL, the “Peptide MIC” value (E. coli; [15]) was 0 µg/mL and the “Peptide MIC” value (E. coli; with Linezolid […] (Conc./MIC 1)) was 0 µg/mL. For the same compound, the “Peptide MIC” value (E. coli; with Vancomycin 1024 μg/ml (Conc./MIC 1)) was 0 µg/mL and the “Minimal inhibitory concentration MIC” value (MDRAB 12036) was 64 µg/mL (≈ 27.8 µM).
